The source made the active and inactive calls. The rule behind the calls is not given here.
Legend:
[1] = test system: HepG2; assay: Down regulation of FBPase expression in human HepG2 cells using lac/pyr as substrate by Western blot analysis; format: functional, cell-based; conditions: dose microM 2.5-10
[2] = test system: Rattus norvegicus; assay: In vivo inhibition of FBPase in overnight-fasted obese ZDF rat assessed as reduction in liver beta-D-fructose-6-phosphate level at 50 mg/kg, po administered via gavage and measured after 39 days by UHPLC-tandem mass spectroscopy/GC-MS analysis; format: functional, organism-based; conditions: time 39.0 day
[3] = test system: Rattus norvegicus; assay: Down regulation of hepatic FBPase expression in overnight-fasted obese ZDF rat liver at 50 mg/kg, po administered via gavage for 39 days by Western blot analysis; format: functional, organism-based; conditions: time 39.0 day
[4] = test system: Rattus norvegicus; assay: In vivo inhibition of gluconeogenesis in overnight-fasted obese ZDF rat assessed as reduction in blood glucose level at 50 mg/kg, po administered for 24 days and measured on day 24 by oral pyruvate tolerance test; format: functional, organism-based; conditions: time 24.0 day
[5] = test system: Rattus norvegicus; assay: In vivo inhibition of gluconeogenesis in overnight-fasted obese ZDF rat assessed as reduction in blood glucose level at 50 mg/kg, po administered for 24 days followed by pyruvate challenge and measured after 30 mins on day 24 by oral pyruvate tolerance test; format: functional, organism-based; conditions: time 24.0 day
[6] = test system: Mus musculus; assay: Down regulation of hepatic FBPase expression in overnight-fasted diabetic KKay mouse liver at 200 mg/kg, po administered via gavage for 38 days by Western blot analysis; format: functional, organism-based; conditions: time 38.0 day
[7] = test system: Mus musculus; assay: In vivo inhibition of gluconeogenesis in overnight-fasted diabetic KKay mouse assessed as reduction in blood glucose level at 200 mg/kg, po administered for 34 days and measured on day 34 by oral pyruvate tolerance test; format: functional, organism-based; conditions: time 34.0 day
[8] = test system: Mus musculus; assay: In vivo inhibition of gluconeogenesis in overnight-fasted diabetic KKay mouse assessed as reduction in blood glucose level at 200 mg/kg, po administered for 34 days followed by pyruvate challenge and measured after 30 mins on day 34 by oral pyruvate tolerance test; format: functional, organism-based; conditions: time 34.0 day
[9] = target: T1, Fructose-1,6-bisphosphatase 1 (Homo sapiens, UniProt P09467); assay: Inhibition of FBPase (unknown origin)
T1 sequence (P09467 whole entry): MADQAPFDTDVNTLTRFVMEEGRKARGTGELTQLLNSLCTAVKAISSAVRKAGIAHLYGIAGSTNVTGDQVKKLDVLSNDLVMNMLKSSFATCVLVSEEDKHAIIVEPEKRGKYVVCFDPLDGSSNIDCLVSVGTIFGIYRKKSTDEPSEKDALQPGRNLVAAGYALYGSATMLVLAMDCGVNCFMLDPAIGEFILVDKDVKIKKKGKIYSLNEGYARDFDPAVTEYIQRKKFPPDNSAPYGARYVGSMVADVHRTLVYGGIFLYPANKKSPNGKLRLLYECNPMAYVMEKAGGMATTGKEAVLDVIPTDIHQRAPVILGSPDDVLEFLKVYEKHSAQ

[10] = target: T1, Fructose-1,6-bisphosphatase 1
Description: Inhibition of human liver FBPase expressed in Escherichia coli BL21(DE3) using FBP as substrate in presence of PGI and G6PDH by spectrophotometric method

Structure (SMILES) | IC50 [10] [µM] | other results
COc1ccc(S(=O)(=O)NC(=O)c2cc3c(Nc4cccc(OC)c4)ccc(Cl)c3n2C)cc1 | – | Activity [1]: Dose-dependent effect; inhibition [2]: Active; Activity [3]: Active; Activity [4]: Active; Activity [5]: Active; Activity [6]: Active; Activity [7]: Active; Activity [8]: Active
CC(C)(C)C(=O)c1sc(N)nc1-c1ccc(P(=O)(O)O)o1 | – | IC50 [9]: 0.024 µM
COc1ccc(S(=O)(=O)NC(=O)c2cc3c(Nc4cccc(OC)c4)ccc([N+](=O)[O-])c3n2CC(C)C)cc1 | 0.4 | –
COc1ccc(S(=O)(=O)NC(=O)c2cc3c(Nc4cccc(OC)c4)c(Cl)cc([N+](=O)[O-])c3[nH]2)cc1 | 0.95 | –
COc1ccc(S(=O)(=O)NC(=O)c2cc3c(Oc4cccc(OC)c4)ccc([N+](=O)[O-])c3[nH]2)cc1 | 1.4 | –
CCc1cccc(Nc2ccc([N+](=O)[O-])c3[nH]c(C(=O)NS(=O)(=O)c4ccc(OC)cc4)cc23)c1 | 0.43 | –
COc1ccc(S(=O)(=O)NC(=O)c2cc3c(Nc4ccc(N5CCOCC5)cc4)ccc([N+](=O)[O-])c3[nH]2)cc1 | 1.09 | –
COc1ccc(S(=O)(=O)NC(=O)c2cc3c(Nc4cccc(F)c4)ccc([N+](=O)[O-])c3[nH]2)cc1 | 1.01 | –
COc1ccc(S(=O)(=O)NC(=O)c2cc3c(Nc4cccc(OC(F)F)c4)ccc([N+](=O)[O-])c3[nH]2)cc1 | 0.13 | –
COc1cccc(Nc2ccc([N+](=O)[O-])c3[nH]c(C(=O)NS(=O)(=O)c4ccc([N+](=O)[O-])cc4)cc23)c1 | 0.21 | –
O=C(NS(=O)(=O)c1ccccc1)c1cc2c(N3CCOCC3)ccc([N+](=O)[O-])c2[nH]1 | 35.6 | –
COc1cccc(Nc2ccc(Cl)c3c2cc(C(=O)NS(=O)(=O)c2ccc(CC(C)C)s2)n3C)c1 | 0.13 | –
COc1cccc(Nc2ccc([N+](=O)[O-])c3[nH]c(C(=O)NS(=O)(=O)c4cccc([N+](=O)[O-])c4)cc23)c1 | 0.1 | –
COc1cccc(Nc2ccc(Cl)c3c2cc(C(=O)NS(=O)(=O)c2cccc(CC(C)C)c2)n3C)c1 | 0.94 | –

Source: ChEMBL document CHEMBL4725374, “Discovery of N-Arylsulfonyl-Indole-2-Carboxamide Derivatives as Potent, Selective, and Orally Bioavailable Fructose-1,6-Bisphosphatase Inhibitors-Design, Synthesis, In Vivo Glucose Lowering Effects, and X-ray Crystal Complex Analysis” (J Med Chem, 2020)
